Measured values reported in patent publication US9796711B2, “Substituted pyrazolo[3,4-b]pyridin-6-carboxylic acids and method of use” (AbbVie S.àr.l., priority 2015, dated 2017).

Assays:
CFTR ΔF508 [1] = molecular target: T1, CFTR ΔF508 (Homo sapiens, UniProt P13569, DEL508-508); assay: Acute TECC assay on primary bronchial epithelial cells, with and without co-corrector; assay type: cell-based; settings: normalized to DMSO and positive control; for % Activity at 10 μM (Ieq*): bronchial epithelial cells from CF patients homozygous for CFTR ΔF508, 10 μM test compound for 24 h, without co-corrector, Ieq based on the maximum current; for % Activity at 3 μM with co-corrector (Ieq): bronchial epithelial cells from CF patients homozygous for CFTR ΔF508, 3 μM test compound for 24 h
T1 construct: bronchial epithelial cells isolated from CF patients homozygous for the CFTR ΔF508 mutation; McGill University; Asterand; University of North Carolina hAEC-CF; host or cells: primary human bronchial epithelial cells from CF patients homozygous for ΔF508
Procedure: Primary Bronchial Epithelial Cells Protocol
The TECC (Tranepithelial Clamp Circuit, EP-design) assay measures the functionality of the cystic fibrosis Transmembrane Conductance regulator (CFTR) by measuring the short circuit current (Isc) generated over the basolateral and apical membrane of lung epithelial cells. In TECC the transepithelial potential PD and transepithelial resistance (Rt)) are measured in an open circuit and transformed to Ieq using Ohm's law. 24 Wells can be measured simultaneously allowing a higher throughput compared to Ussing chambers.
For this purpose, bronchial epithelial cells isolated from CF patients homozygous for the CFTR ΔF508 mutation (hAEC-CF, Epithelix, Geneva, Switzerland; McGill University, Montreal, Qc; Asterand, Detroit, Mich.; University of North Carolina, Chapel Hill, N.C.) are plated on type IV collagen-coated Transwell® supports (Costar). Human airway epithelia are generated by provision of an air-liquid interface for 21 days to form well-differentiated polarized cultures that resemble in vivo pseudo-stratified ciliated epithelium (Fulcher, M. L., Gabriel, S., Burns, K. A., Yankaskas, J. R., Randell, S. H., 2005. Well-differentiated human airway epithelial cell cultures. Methods Mol. Med. 107, 183-206). The differentiated cells are treated with test corrector compound(s) (corrector alone or in combination with co-corrector, 4-[(2R,4R)-4-({[1-(2,2-difluoro-1,3-benzodioxol-5-yl)cyclopropyl]carbonyl}amino)-7-methoxy-3,4-dihydro-2H-chromen-2-yl]benzoic acid (G924806/A-1618261) (“acute”) or test corrector compounds, co-corrector and potentiator, N-(3-carbamoyl-5,5,7,7-tetramethyl-4,7-dihydro-5H-thieno[2,3-c]pyran-2-yl)-1H-pyrazole-5-carboxamide GLPG1837, (“chronic”) for 24 hours basolaterally to allow sufficient expression of properly folded CFTR protein on the membrane. All compound plates contained negative controls (DMSO) and positive controls (0.15 μM, 4-[(2R,4R)-4-({[1-(2,2-difluoro-1,3-benzodioxol-5-yl)cyclopropyl]carbonyl}amino)-7-(difluoromethoxy)-3,4-dihydro-2H-chromen-2-yl]benzoic acid).
For electrophysiological recording of the “acute” experiments, the human airway epithelia are mounted in the TECC heating plate and kept at 37° C. The epithelia are bathed in a NaCl-Ringer solution (120 mM NaCl, 25 mM NaHCO3, 1.2 mM CaCl2, 1.2 mM MgCl2, 0.8 mM KH2PO4, 0.8 mM K2HPO4, pH 7.4, 5 mM glucose) on both the basolateral and apical sides. Apical amiloride is used to inhibit the endogenous epithelial sodium channel (ENaC) currents while forskolin is applied on both apical and basolateral side to stimulate CFTR. CFTR activity is measured by addition of forskolin followed by addition of a potentiator, N-(3-carbamoyl-5,5,7,7-tetramethyl-4,7-dihydro-5H-thieno[2,3-c]pyran-2-yl)-1H-pyrazole-5-carboxamide, on both sides. Measurements are done during a 20 minute timeframe with recordings every 2 minutes. The increase in Ieq is used as a measure for the increased CFTR activity, EC50 values can be generated by measuring impact of different concentrations of compound on Ieq on primary cells, for this purpose each transwell is treated with a different compound concentration for 24 hours. Inhibitor-172, an inhibitor specific for CFTR, is used to test the specificity of the tested compounds. Raw data were normalized to percentage activity values using the equation: 100×(Sample−Negative control)/(Positive control−Negative Control).

CFTR ΔF508 [2] = molecular target: T1, CFTR ΔF508; assay: Chronic TECC assay on primary bronchial epithelial cells (corrector, co-corrector and potentiator); assay type: cell-based; settings: chronic TECC, Ieq = calculations based on the maximum current, with co-corrector and potentiator, 24 hours; for EC50: read-out: EC50 (nM) (Ieq)
Outline: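 Differentiated airway epithelia from CFTR ΔF508-homozygous CF patients (21 days air-liquid interface) were treated basolaterally for 24 h with corrector plus co-corrector and potentiator; compounds were re-added before TECC recording at 37 °C in NaCl-Ringer, pH 7.4. Forskolin-stimulated Ieq increase after apical amiloride, normalized to DMSO and positive controls; EC50 from concentration series.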

T1 sequence (P13569 with tags, fused parts or gaps DEL508-508): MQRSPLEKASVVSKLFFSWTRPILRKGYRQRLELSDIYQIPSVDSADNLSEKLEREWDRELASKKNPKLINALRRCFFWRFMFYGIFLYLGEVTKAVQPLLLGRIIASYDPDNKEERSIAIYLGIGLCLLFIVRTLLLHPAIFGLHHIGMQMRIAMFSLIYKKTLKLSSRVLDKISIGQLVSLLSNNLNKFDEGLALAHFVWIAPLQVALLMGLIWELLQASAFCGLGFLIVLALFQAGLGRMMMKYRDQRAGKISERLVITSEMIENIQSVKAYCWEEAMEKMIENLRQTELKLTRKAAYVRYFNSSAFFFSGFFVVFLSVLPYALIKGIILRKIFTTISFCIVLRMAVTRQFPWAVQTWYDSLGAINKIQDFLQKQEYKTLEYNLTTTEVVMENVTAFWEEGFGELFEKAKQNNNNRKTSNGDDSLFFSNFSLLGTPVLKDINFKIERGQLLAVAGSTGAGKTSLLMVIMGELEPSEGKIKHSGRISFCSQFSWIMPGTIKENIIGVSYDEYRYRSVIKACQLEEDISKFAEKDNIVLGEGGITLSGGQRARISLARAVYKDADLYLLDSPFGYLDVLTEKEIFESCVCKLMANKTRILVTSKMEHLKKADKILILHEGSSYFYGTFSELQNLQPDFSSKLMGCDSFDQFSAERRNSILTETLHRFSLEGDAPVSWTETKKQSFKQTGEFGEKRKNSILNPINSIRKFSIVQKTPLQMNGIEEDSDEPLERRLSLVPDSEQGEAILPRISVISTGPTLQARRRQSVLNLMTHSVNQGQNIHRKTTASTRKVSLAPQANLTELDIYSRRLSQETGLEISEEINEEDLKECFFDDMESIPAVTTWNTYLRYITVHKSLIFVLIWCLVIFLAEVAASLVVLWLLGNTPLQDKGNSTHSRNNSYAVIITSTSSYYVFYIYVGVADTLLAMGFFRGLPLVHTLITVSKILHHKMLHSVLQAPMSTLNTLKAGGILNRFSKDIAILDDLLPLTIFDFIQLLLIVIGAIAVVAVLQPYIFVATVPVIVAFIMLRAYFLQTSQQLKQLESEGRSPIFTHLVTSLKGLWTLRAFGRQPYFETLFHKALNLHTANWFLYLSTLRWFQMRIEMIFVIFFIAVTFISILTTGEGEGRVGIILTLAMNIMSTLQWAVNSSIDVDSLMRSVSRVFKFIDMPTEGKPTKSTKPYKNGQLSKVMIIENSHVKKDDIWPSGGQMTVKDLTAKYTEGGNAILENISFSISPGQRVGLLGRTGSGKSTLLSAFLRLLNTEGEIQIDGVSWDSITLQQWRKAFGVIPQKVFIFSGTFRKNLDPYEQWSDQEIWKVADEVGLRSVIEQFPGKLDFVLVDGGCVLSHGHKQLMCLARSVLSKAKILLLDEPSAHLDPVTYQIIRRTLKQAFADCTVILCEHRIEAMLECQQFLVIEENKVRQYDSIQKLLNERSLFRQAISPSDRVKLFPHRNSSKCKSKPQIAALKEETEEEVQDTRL

SMILES	% Activity at 10 μM (Ieq*) (CFTR ΔF508 [1]) [%]	% Activity at 3 μM with co-corrector (Ieq) (CFTR ΔF508 [1]) [%]	% Activity at 1 μM (Ieq*) (CFTR ΔF508 [2]) [%]	EC50 (CFTR ΔF508 [2]) [nM]
CC(C)c1nn(-c2cccc(N3CCOCC3)c2)c2nc(C(=O)O)cc(-c3ccc(N(C)C)nc3)c12 [compound 89, 4-[6-(dimethylamino)pyridin-3-yl]-1-[3-(morpholin-4-yl)phenyl]-3-(propan-2-yl)-1H-pyrazolo[3,4-b]pyridine-6-carboxylic acid]	147.6	–	–	–
Cc1nn(-c2ccccc2)c2nc(C(=O)O)cc(N3CCCCC3)c12 [compound 123, 3-methyl-1-phenyl-4-(piperidin-1-yl)-1H-pyrazolo[3,4-b]pyridine-6-carboxylic acid]	100.6	–	–	–
CC(C)c1nn(-c2cccc(N3CCC3)c2)c2nc(C(=O)O)cc(-c3ccc(N4CCOCC4)cc3)c12 [compound 151, 1-[3-(azetidin-1-yl)phenyl]-4-[4-(morpholin-4-yl)phenyl]-3-(propan-2-yl)-1H-pyrazolo[3,4-b]pyridine-6-carboxylic acid]	100.6	–	–	–
CC(C)c1nn(C2CCCCC2)c2nc(C(=O)O)cc(-c3ccc(N(C)C4CCOCC4)nc3)c12 [compound 169, 1-cyclohexyl-4-{6-[methyl(oxan-4-yl)amino]pyridin-3-yl}-3-(propan-2-yl)-1H-pyrazolo[3,4-b]pyridine-6-carboxylic acid]	–	279.1	–	–
Cc1cccc(-n2nc(C(C)C)c3c(N4CCC(CO)CC4)cc(C(=O)O)nc32)c1 [compound 213, 4-[4-(hydroxymethyl)piperidin-1-yl]-1-(3-methylphenyl)-3-(propan-2-yl)-1H-pyrazolo[3,4-b]pyridine-6-carboxylic acid]	–	199.4	390	> 300
N#CC1CCN(c2ccc(-c3cc(C(=O)O)nc4c3c(C3CCC3)nn4C3CCCCC3)cn2)CC1 [compound 220, 4-[6-(4-cyanopiperidin-1-yl)pyridin-3-yl]-3-cyclobutyl-1-cyclohexyl-1H-pyrazolo[3,4-b]pyridine-6-carboxylic acid]	–	122.9	720	120
CC(C)c1nn(-c2cccc(N3CCCC3)c2)c2nc(C(=O)O)cc(-c3ccc(N4CCC(C#N)CC4)nc3)c12 [compound 222, 4-[6-(4-cyanopiperidin-1-yl)pyridin-3-yl]-3-(propan-2-yl)-1-[3-(pyrrolidin-1-yl)phenyl]-1H-pyrazolo[3,4-b]pyridine-6-carboxylic acid]	–	221.3	–	–
